Assay results: patent US20130011376A1, “Methods for Enhancing Natural Killer Cell Proliferation and Activity” (GAMIDA CELL LTD., priority 2009, published 2013)
Where two headings read alike, the source gives them in different places.

Key:
[1] = system: K562 target cells; format: cell-based
Description: (§1) “Killing” assay: NK cells (effectors cells=E) are combined with K562 or BL2 (target cells=T), or bi-phenotypic leukemia cells at different E to T ratio (E:T). BL2 or K562, or bi-phenotypic leukemia target cells in PBS were labeled with 1 ng/ml CFSE (Invitrogen) for 15 min at 37° C. Calf Serum was added to the cells for 15 minutes, the cells were then washed and resuspended in RPMI medium. 100 μL of bi-phenotypic leukemia, BL2 or K562 cells were placed in a 96 round bottom plate at a concentration of 5×10^3 cells per well. 100 μL of non-stained NK cells were added to the bi-phenotypic leukemia, BL2 or K562 cells at a E:T ratio of 1:1, 2.5:1, 5:1, 10:1 or 20:1 (5×10^3, 1.25×10^4, 2.5×10^4, 5×10^4 and 1×10^5 cells/well, respectively, as indicated). Between 2-48 hours later. Killing of target cells in cell lines such as K562 and BL-2 was determined by FACS as a percentage propidium-iodine (PI)-positive (dead) CFSE-labeled cells. Killing of the primary leukemia cells was determined by counting with the FACS the number of CFSE stained cells that remained in the culture after their culture with the NK cells. A lower number of CFSE+ cells is indicative of higher level of killing.

[2] = system: BL2 target cells; format: cell-based; settings: 2.5 mM or 5.0 mM nicotinamide for 3 weeks; E:T 1:1 to 10:1
Description: as §1

[3] = system: human primary bi-phenotypic leukemia cells; format: cell-based; settings: after 24 hours, NK cells of 2 donors (Donor A and Donor B)
Description: as §1

[4] = system: peripheral blood-derived, immunobeads-purified CD56+ cells; experiment: Assay of CD62L expression on NK cell surface, purified peripheral blood CD56+ cells; format: cell-based, human; settings: 2.5-7.5 mM nicotinamide, 3 weeks in culture
Description: Cultures were initiated with peripheral-blood-derived CD56+ cells purified with immunomagnetic beads and activated with cytokines (including IL-2 and IL-15) with or without nicotinamide (2.5, 5 and 7.5 mM). NK cells were stained with specific antibodies for the specified surface markers (e.g., CD62L) before activation in culture and after 3 weeks incubation with nicotinamide, and then monitored by FACS.

[5] = system: cord blood NK cells (CD56+); experiment: Ex-vivo proliferation of purified cord blood CD56+ NK cells cultured with cytokines and nicotinamide; format: cell-based, human; settings: for proliferation of NK cells relative to growth factors (cytokines) alone: 14 days
Description: Cells were obtained from umbilical cord blood after normal full-term delivery (informed consent was given). Samples were collected and frozen within 24 hours postpartum. Briefly, cord blood was collected by gravity from delivered placentas, the leukocyte-rich fraction was separated by density gradient centrifugation, cells mixed with DMSO (10%) and then frozen at −80° C. Prior to use, the cells were thawed in Dextran buffer (Sigma, St. Louis, Mo., USA) containing 2.5% human serum albumin (HSA) (Bayer Corp. Elkhart, Ind., USA), and the cryoprotectant removed.
Cord blood (CB), bone marrow (BM) or peripheral blood (PB) cells were layered on a Ficoll-Hypaque gradient (1.077 g/mL; Sigma), and centrifuged at 800×g for 30 minutes for separation of the mononuclear cells. The cells in the interface layer were collected and washed three times in phosphate-buffered saline (PBS) (Biological Industries, Israel) containing 0.5% HSA. To purify the CD56+ cells, the mononuclear cell fraction was subjected to two cycles of immunomagnetic bead separation, using a “MiniMACS or CliniMACS CD56 progenitor cell isolation kit” (Miltenyi Biotec Bergisch, Gladbach, Germany), according to the manufacturer's recommendations. Briefly, CD56+ cells are reacted with CD56+ specific magnetic immunobeads, separated and with a magnetic separator, and purified from unbound cells by washing. The purity of the CD56+ population thus obtained is approximately 92%, as evaluated by flow cytometry.
2. Purified CD56+ or CD56+CD3− cells from total nuclear or mononuclear cells or from the fraction depleted from CD34+ or CD133+ cells were cultured in culture bags, T-Flasks or 24 well plates at a concentration of 1-100×10^4 cells/ml in MEMα/10% FCS or CellGro SCGM (Cell Genix)/5% Human Serum/LiforCell® FBS Replacement (Lifeblood Products) containing the following human recombinant cytokines:, interleukin-2 (IL-2) (5-50 ng/ml), interleukin-15 (IL-15), FLT-3 or SCF or FLT3 and SCF or IL-2 and IL-15 or IL-2 only (Perpo Tech, Inc., Rocky Hill, N.J., USA), with or without nicotinamide, and incubated at 37° C. in a humidified atmosphere of 5% CO2 in air. The cultures were topped up once or twice a week with the same volume of fresh medium containing growth factors with or without nicotinamide. Eventually cultures can be supplemented once or several times a week with IL-2 and or IL-2 and IL-15. To estimate the number of cells in culture, cell samples were stained with trypan blue for counting. At various time points, samples were taken for FACS analysis to assay the relative fractions of NK cells, CD56+CD3−, CD56+CD3+, CD34+CD56+, CD56+CD16+ and/or CD56+ NKG2A cells.
In order to calculate the number of NK cells on day 0, the total number of cells seeded on day 0 was multiplied by the percent of CD56+/CD3− cells measured by the FACS on day 0.
To determine total number of cells on day 7, 14 and 21, the cell count/ml was multiplied by the volume of the culture medium. In order to determine the number of NK cells in culture, the total number of cells in culture was multiplied by the percent of CD56+/CD3− cells measured with the FACS on days 7, 14 or 21. To measure fold expansion, total number of NK cells on days 7, 14 and 21 was divided by total number of NK cells seeded in culture on day-0.

[6] = system: K562 target cells; experiment: Killing assay, NK cells expanded with irradiated feeder cells; format: cell-based, human; settings: 5:1, 2.5:1 and 1:1 NK cells per target cell
Description: as §1
Peripheral blood-derived mononuclear cell fractions were CD3 depleted and then selected for CD56+ cells by immunobead purification. […]

## NC(=O)c1cccnc1 [nicotinamide]
[1]; 2.5 mM or 5.0 mM nicotinamide for 3 weeks, E:T 1:1 to 10:1
  killing (cytotoxic) potential vs cells cultured in growth factors only: far greater
[1]; E:T ratios of 1:5, 1:10 and 1:20 NK cells per target
  killing (cytotoxic) potential vs cells cultured in growth factors only: far greater
[2]
  killing (cytotoxic) potential vs cells cultured in growth factors only: far greater
[3]
  cytotoxic potential of expanded NK cells: increased activation of NK cells killing potential
[4]
  expression of CD62L following activation in culture with IL-2: remarkable increase
[5]; 0.5 mM to 5 mM nicotinamide, three weeks culture
  NK cell proliferation relative to growth factors (cytokines) alone: up to 2.5 times
[5]; 2.5 mM nicotinamide, IL-2 and IL-15
  proliferation of NK cells relative to growth factors (cytokines) alone: greater than 4 times
[5]; 5 mM nicotinamide, compared with 2.5 mM
  proliferation of NK cells relative to growth factors (cytokines) alone: even greater
[5]; 1 to 7.5 mM nicotinamide, up to 3 weeks, Flt-3, IL-2 and IL-15
  expansion of cord blood CD56+ NK cultures vs cytokine-only controls: dose-dependent increase in the expansion
[5]; all concentrations tested, as early as 14 days of culture
  proliferation of NK cells: significantly enhanced proliferation
[6]
  ex-vivo killing potential: increased cytotoxic capability
